Legend:
Type in all cases: biochemical
Settings in all cases: 10 μM, ATP near Km
[1] = target: T1, CK1gamma3 (Homo sapiens, UniProt Q9Y6M4); assay: KinaseProfiler CK1gamma3
T1 construct: purchased Millipore, Inc. (KinaseProfiler service)
From the text: (§1) The compound was run in duplicate at a concentration of ATP near the Km for each individual kinase according to Millipore's specifications.

[2] = target: T2, FAK (Homo sapiens, UniProt Q05397); assay: KinaseProfiler FAK
T2 construct: purchased Millipore, Inc. (KinaseProfiler service)
From the text: as §1

[3] = target: T3, Hck (Homo sapiens, UniProt P08631); assay: KinaseProfiler Hck
T3 construct: purchased Millipore, Inc. (KinaseProfiler service)
From the text: as §1

[4] = target: T4, CK1gamma1 (Homo sapiens, UniProt Q9HCP0); assay: KinaseProfiler CK1gamma1
T4 construct: purchased Millipore, Inc. (KinaseProfiler service)
From the text: as §1

[5] = target: T5, Ret (Homo sapiens, UniProt P07949); assay: KinaseProfiler Ret
T5 construct: purchased Millipore, Inc. (KinaseProfiler service)
T5 sequence (P07949 29-1114): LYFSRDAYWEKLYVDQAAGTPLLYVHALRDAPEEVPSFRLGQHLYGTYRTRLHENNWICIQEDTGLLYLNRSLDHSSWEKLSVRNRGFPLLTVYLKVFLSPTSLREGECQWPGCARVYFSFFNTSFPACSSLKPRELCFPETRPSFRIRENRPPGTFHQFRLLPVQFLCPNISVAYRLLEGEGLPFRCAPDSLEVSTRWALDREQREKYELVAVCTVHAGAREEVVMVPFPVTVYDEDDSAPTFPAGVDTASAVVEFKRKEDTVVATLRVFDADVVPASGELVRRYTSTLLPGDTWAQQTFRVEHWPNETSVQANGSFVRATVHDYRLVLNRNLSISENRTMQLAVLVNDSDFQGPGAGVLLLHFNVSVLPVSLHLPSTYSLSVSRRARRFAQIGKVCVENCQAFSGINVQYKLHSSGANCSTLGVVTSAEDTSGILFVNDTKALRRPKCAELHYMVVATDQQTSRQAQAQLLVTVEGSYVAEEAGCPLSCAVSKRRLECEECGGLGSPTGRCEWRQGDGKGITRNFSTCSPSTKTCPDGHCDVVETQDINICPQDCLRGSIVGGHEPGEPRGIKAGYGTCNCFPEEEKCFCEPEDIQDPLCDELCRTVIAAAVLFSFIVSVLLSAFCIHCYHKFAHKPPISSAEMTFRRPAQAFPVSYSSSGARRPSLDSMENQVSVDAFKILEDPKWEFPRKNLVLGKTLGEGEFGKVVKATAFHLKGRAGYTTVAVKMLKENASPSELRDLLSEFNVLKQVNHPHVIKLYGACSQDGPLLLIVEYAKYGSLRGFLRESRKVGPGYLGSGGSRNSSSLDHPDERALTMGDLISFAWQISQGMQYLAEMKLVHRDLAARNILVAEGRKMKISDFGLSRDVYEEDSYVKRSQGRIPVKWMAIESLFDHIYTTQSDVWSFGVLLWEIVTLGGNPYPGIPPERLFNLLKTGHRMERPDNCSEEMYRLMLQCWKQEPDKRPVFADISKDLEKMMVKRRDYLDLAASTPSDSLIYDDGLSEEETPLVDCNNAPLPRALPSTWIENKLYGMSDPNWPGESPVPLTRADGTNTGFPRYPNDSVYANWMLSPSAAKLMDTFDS
From the text: as §1

[6] = target: T6, TEC Activated (Homo sapiens, UniProt P42680); assay: KinaseProfiler TEC Activated
T6 construct: purchased Millipore, Inc. (KinaseProfiler service)
From the text: as §1

[7] = target: T7, HIPK2 (Homo sapiens, UniProt Q9H2X6); assay: KinaseProfiler HIPK2
T7 construct: purchased Millipore, Inc. (KinaseProfiler service)
From the text: as §1

[8] = target: T8, IRR (Homo sapiens, UniProt P14616); assay: KinaseProfiler IRR
T8 construct: purchased Millipore, Inc. (KinaseProfiler service)
From the text: as §1

[9] = target: T9, CDK9/cyclinT1 (Homo sapiens, UniProt P50750); assay: KinaseProfiler CDK9/cyclinT1
T9 construct: purchased Millipore, Inc. (KinaseProfiler service)
From the text: as §1

[10] = target: T10, IR (Homo sapiens, UniProt P06213); assay: KinaseProfiler IR
T10 construct: purchased Millipore, Inc. (KinaseProfiler service)
From the text: as §1

[11] = target: T11, Fyn (Homo sapiens, UniProt P06241); assay: KinaseProfiler Fyn
T11 construct: purchased Millipore, Inc. (KinaseProfiler service)
From the text: as §1

[12] = target: T12, Lck (Homo sapiens, UniProt P06239); assay: KinaseProfiler Lck
T12 construct: purchased Millipore, Inc. (KinaseProfiler service)
From the text: as §1

[13] = target: T13, Ros (Homo sapiens, UniProt P08922); assay: KinaseProfiler Ros
T13 construct: purchased Millipore, Inc. (KinaseProfiler service)
From the text: as §1

[14] = target: T14, IKKbeta (Homo sapiens, UniProt O14920); assay: KinaseProfiler IKKbeta
T14 construct: purchased Millipore, Inc. (KinaseProfiler service)
From the text: as §1

[15] = target: T15, WNK2 (Homo sapiens, UniProt Q9Y3S1); assay: KinaseProfiler WNK2
T15 construct: purchased Millipore, Inc. (KinaseProfiler service)
From the text: as §1

[16] = target: T16, p70S6K (Homo sapiens, UniProt P23443); assay: KinaseProfiler p70S6K
T16 construct: purchased Millipore, Inc. (KinaseProfiler service)
From the text: as §1

[17] = target: T17, MELK (Homo sapiens, UniProt Q14680); assay: KinaseProfiler MELK
T17 construct: purchased Millipore, Inc. (KinaseProfiler service)
From the text: as §1

[18] = target: T18, TAO1 (Homo sapiens, UniProt Q7L7X3); assay: KinaseProfiler TAO1
T18 construct: purchased Millipore, Inc. (KinaseProfiler service)
From the text: as §1

[19] = target: T19, LOK (Homo sapiens, UniProt O94804); assay: KinaseProfiler LOK
T19 construct: purchased Millipore, Inc. (KinaseProfiler service)
T19 sequence (O94804 whole entry): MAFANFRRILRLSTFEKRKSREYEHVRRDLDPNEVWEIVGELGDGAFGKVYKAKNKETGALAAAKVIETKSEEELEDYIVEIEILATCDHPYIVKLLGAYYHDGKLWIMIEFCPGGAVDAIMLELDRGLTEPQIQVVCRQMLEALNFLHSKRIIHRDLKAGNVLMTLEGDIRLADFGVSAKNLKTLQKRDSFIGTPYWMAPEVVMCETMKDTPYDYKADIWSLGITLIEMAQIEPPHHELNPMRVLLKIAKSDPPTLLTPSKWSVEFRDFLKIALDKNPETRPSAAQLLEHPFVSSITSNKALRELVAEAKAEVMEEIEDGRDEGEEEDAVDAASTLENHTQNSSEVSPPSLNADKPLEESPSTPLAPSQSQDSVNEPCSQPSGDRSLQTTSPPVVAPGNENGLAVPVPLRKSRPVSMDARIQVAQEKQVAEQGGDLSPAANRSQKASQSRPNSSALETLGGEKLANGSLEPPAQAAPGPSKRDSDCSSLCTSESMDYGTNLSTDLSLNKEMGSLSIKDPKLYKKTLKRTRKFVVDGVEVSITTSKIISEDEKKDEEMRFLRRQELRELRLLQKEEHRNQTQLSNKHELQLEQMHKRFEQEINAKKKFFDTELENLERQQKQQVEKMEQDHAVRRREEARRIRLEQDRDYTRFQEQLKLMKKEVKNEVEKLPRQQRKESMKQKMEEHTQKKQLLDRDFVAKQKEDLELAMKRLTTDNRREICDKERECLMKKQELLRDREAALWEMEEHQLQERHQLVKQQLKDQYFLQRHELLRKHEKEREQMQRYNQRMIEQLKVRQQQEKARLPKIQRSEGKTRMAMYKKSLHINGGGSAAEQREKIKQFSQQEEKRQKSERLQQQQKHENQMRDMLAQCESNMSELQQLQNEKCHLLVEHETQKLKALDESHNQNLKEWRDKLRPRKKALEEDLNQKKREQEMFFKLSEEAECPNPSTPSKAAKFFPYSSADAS
From the text: as §1

[20] = target: T20, EphA3 (Homo sapiens, UniProt P29320); assay: KinaseProfiler EphA3
T20 construct: purchased Millipore, Inc. (KinaseProfiler service)
From the text: as §1

[21] = target: T21, LIMK1 (Homo sapiens, UniProt P53667); assay: KinaseProfiler LIMK1
T21 construct: purchased Millipore, Inc. (KinaseProfiler service)
From the text: as §1

[22] = target: T22, TAO2 (Homo sapiens, UniProt Q9UL54); assay: KinaseProfiler TAO2
T22 construct: purchased Millipore, Inc. (KinaseProfiler service)
From the text: as §1

[23] = target: T23, PKCdelta (Homo sapiens, UniProt Q05655); assay: KinaseProfiler PKCdelta
T23 construct: purchased Millipore, Inc. (KinaseProfiler service)
From the text: as §1

[24] = target: T24, CK2alpha2 (Homo sapiens, UniProt P19784); assay: KinaseProfiler CK2alpha2
T24 construct: purchased Millipore, Inc. (KinaseProfiler service)
From the text: as §1

[25] = target: T25, AKT2 (Homo sapiens, UniProt P31751); assay: KinaseProfiler AKT2
T25 construct: purchased Millipore (KinaseProfiler service)
T25 sequence (P31751 whole entry): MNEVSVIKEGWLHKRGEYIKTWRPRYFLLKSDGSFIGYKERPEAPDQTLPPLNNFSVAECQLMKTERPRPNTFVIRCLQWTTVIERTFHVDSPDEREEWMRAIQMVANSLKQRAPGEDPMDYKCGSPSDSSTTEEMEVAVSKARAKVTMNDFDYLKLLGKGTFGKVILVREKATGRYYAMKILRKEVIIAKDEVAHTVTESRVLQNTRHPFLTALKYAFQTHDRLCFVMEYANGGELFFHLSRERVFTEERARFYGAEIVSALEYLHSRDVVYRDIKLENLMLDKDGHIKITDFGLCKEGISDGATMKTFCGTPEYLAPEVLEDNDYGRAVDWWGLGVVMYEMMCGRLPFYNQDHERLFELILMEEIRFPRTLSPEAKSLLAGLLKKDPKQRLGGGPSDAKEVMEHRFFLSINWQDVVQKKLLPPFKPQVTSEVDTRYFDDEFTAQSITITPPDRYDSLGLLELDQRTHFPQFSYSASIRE
From the text: as §1

[26] = target: T26, MSSK1 (Homo sapiens, UniProt Q9UPE1); assay: KinaseProfiler MSSK1
T26 construct: purchased Millipore, Inc. (KinaseProfiler service)
From the text: as §1

[27] = target: T27, PAK2 (Homo sapiens, UniProt Q13177); assay: KinaseProfiler PAK2
T27 construct: purchased Millipore, Inc. (KinaseProfiler service)
From the text: as §1

[28] = target: T28, Lyn (Homo sapiens, UniProt P07948); assay: KinaseProfiler Lyn
T28 construct: purchased Millipore, Inc. (KinaseProfiler service)
From the text: as §1

[29] = target: T29, CAMK1d (Homo sapiens, UniProt Q8IU85); assay: KinaseProfiler CAMK1d
T29 construct: purchased Millipore (KinaseProfiler service)
From the text: as §1

[30] = target: T30, MARK1 (Homo sapiens, UniProt Q9P0L2); assay: KinaseProfiler MARK1
T30 construct: purchased Millipore, Inc. (KinaseProfiler service)
From the text: as §1

[31] = target: T31, NEK3 (Homo sapiens, UniProt P51956); assay: KinaseProfiler NEK3
T31 construct: purchased Millipore, Inc. (KinaseProfiler service)
From the text: as §1

[32] = target: T32, IGF-1R (Homo sapiens, UniProt P08069); assay: KinaseProfiler IGF-1R
T32 construct: purchased Millipore, Inc. (KinaseProfiler service)
From the text: as §1

[33] = target: T33, GSK3beta (Homo sapiens, UniProt P49841); assay: KinaseProfiler GSK3beta
T33 construct: purchased Millipore, Inc. (KinaseProfiler service)
From the text: as §1

[34] = target: T34, TAK1 (Homo sapiens, UniProt O43318); assay: KinaseProfiler TAK1
T34 construct: purchased Millipore, Inc. (KinaseProfiler service)
From the text: as §1

[35] = target: T35, SGK2 (Homo sapiens, UniProt Q9HBY8); assay: KinaseProfiler SGK2
T35 construct: purchased Millipore, Inc. (KinaseProfiler service)
From the text: as §1

[36] = target: T36, FGFR1 (Homo sapiens, UniProt P11362); assay: KinaseProfiler FGFR1
T36 construct: purchased Millipore, Inc. (KinaseProfiler service)
From the text: as §1

[37] = target: T37, ERK2 (Homo sapiens, UniProt P28482); assay: KinaseProfiler ERK2
T37 construct: purchased Millipore, Inc. (KinaseProfiler service)
From the text: as §1

[38] = target: T38, CDK3/cyclinE (Homo sapiens, UniProt Q00526); assay: KinaseProfiler CDK3/cyclinE
T38 construct: purchased Millipore, Inc. (KinaseProfiler service)
T38 sequence (Q00526 whole entry): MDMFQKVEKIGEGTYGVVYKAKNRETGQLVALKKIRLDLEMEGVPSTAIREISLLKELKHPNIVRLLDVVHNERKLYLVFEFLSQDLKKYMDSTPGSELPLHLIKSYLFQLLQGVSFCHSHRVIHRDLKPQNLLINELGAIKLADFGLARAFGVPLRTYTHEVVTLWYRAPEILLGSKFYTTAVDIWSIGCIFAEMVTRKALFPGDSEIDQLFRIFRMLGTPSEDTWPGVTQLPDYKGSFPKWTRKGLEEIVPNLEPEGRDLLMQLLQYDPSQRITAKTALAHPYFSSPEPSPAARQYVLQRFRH
T38 sequence (P24864 whole entry partner): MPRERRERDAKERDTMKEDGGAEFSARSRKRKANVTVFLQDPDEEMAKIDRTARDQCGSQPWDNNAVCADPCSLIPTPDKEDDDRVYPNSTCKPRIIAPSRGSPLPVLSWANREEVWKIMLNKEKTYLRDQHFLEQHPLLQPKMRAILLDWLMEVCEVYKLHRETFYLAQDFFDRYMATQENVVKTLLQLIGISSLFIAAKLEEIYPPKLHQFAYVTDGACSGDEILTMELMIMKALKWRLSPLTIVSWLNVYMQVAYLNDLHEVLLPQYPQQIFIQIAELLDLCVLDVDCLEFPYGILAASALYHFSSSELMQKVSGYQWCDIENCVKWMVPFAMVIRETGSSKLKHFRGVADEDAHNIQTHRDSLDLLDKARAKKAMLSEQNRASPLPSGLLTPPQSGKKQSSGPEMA
From the text: as §1

[39] = target: T39, GSK3alpha (Homo sapiens, UniProt P49840); assay: KinaseProfiler GSK3alpha
T39 construct: purchased Millipore, Inc. (KinaseProfiler service)
T39 sequence (P49840 whole entry): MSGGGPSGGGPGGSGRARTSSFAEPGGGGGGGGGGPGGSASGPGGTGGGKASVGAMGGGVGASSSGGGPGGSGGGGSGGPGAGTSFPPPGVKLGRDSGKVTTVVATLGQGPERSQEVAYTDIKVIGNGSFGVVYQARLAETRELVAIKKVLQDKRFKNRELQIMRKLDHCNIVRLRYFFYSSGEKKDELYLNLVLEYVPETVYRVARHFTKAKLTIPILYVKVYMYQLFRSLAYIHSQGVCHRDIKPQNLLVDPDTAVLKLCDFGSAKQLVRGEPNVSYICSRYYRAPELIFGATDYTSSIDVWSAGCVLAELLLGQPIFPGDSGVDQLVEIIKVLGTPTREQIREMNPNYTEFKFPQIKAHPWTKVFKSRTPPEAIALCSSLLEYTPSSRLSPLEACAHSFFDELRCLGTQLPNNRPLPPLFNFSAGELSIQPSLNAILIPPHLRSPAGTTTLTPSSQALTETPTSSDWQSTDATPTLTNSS
From the text: as §1

[40] = target: T40, NLK (Homo sapiens, UniProt Q9UBE8); assay: KinaseProfiler NLK
T40 construct: purchased Millipore, Inc. (KinaseProfiler service)
T40 sequence (Q9UBE8 whole entry): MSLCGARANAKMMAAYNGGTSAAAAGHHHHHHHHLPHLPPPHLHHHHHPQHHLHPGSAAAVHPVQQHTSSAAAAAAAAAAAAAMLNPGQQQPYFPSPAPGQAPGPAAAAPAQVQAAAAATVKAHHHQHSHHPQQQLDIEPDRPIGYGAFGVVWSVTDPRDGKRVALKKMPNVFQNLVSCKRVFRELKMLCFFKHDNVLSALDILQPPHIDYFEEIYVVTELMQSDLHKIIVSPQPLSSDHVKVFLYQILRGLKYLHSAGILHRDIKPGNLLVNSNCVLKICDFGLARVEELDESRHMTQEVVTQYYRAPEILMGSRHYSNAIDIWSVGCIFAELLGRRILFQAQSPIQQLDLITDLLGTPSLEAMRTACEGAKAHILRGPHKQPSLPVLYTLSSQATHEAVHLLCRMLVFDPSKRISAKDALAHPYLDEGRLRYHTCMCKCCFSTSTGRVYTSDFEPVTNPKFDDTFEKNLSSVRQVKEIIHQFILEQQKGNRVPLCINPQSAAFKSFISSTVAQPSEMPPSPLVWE
From the text: as §1

[41] = target: T41, MRCKalpha (Homo sapiens, UniProt Q5VT25); assay: KinaseProfiler MRCKalpha
T41 construct: purchased Millipore, Inc. (KinaseProfiler service)
From the text: as §1

[42] = target: T42, PAK6 (Homo sapiens, UniProt Q9NQU5); assay: KinaseProfiler PAK6
T42 construct: purchased Millipore, Inc. (KinaseProfiler service)
T42 sequence (Q9NQU5 whole entry): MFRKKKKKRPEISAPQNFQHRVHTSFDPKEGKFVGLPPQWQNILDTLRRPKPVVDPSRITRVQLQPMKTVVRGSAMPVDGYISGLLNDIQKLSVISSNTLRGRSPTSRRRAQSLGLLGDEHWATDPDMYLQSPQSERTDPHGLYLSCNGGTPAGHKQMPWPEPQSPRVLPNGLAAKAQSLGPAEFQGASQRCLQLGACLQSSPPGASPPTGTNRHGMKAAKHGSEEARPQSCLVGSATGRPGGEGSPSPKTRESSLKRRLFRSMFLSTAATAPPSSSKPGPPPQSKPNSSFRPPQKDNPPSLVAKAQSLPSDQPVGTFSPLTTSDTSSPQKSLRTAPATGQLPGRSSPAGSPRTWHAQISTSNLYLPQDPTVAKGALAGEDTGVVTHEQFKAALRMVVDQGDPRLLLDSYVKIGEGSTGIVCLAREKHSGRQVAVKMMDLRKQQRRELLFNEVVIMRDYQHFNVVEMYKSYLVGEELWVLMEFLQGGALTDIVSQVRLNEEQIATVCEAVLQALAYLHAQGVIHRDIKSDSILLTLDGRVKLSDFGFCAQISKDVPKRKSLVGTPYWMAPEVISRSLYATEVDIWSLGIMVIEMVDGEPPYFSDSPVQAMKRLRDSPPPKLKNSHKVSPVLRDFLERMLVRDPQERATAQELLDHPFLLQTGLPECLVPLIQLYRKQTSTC
From the text: as §1

[43] = target: T43, PKCbetaI (Homo sapiens, UniProt P05771); assay: KinaseProfiler PKCbetaI
T43 construct: purchased Millipore, Inc. (KinaseProfiler service)
From the text: as §1

What does the source list for `Cc1c(-c2cnn(C)c2)nn(-c2ccccc2)c1NC(=O)Nc1cc(C(F)(F)F)nn1-c1ccccc1` [Example 3, 1-(1′,4-dimethyl-1-phenyl-1H,1′H-[3,4′-bipyrazol]-5-yl)-3-(1-phenyl-3-(trifluoromethyl)-1H-pyrazol-5-yl)urea]?
Avg POC [1]: 125 POC; Avg POC [2]: 105.5 POC; Avg POC [3]: 110.5 POC; Avg POC [4]: 112 POC; Avg POC [5]: 89.5 POC; Avg POC [6]: 144.5 POC; Avg POC [7]: 101.5 POC; Avg POC [8]: 99.5 POC; Avg POC [9]: 107.5 POC; Avg POC [10]: 90 POC; Avg POC [11]: 110 POC; Avg POC [12]: 93 POC; Avg POC [13]: 97 POC; Avg POC [14]: 123 POC; Avg POC [15]: 120 POC; Avg POC [16]: 273.5 POC; Avg POC [17]: 115 POC; Avg POC [18]: 119 POC; Avg POC [19]: 97.5 POC; Avg POC [20]: 128.5 POC; Avg POC [21]: 92 POC; Avg POC [22]: 108 POC; Avg POC [23]: 98.5 POC; Avg POC [24]: 102.5 POC; Avg POC [25]: 219.5 POC; Avg POC [26]: 140 POC; Avg POC [27]: 98 POC; Avg POC [28]: 98 POC; Avg POC [29]: 138 POC; Avg POC [30]: 112 POC; Avg POC [31]: 105.5 POC; Avg POC [32]: 74.5 POC; Avg POC [33]: 195 POC; Avg POC [34]: 94 POC; Avg POC [35]: 159.5 POC; Avg POC [36]: 96 POC; Avg POC [37]: 116 POC; Avg POC [38]: 103 POC; Avg POC [39]: 170 POC; Avg POC [40]: 116.5 POC; Avg POC [41]: 172.5 POC; Avg POC [42]: 167 POC; Avg POC [43]: 87 POC
